In patent publication US8076342B2, “Malonate salt of 4-((1R,3S)-6-chloro-3-phenylindan-1-yl)-1,2,2-trimethylpiperazine and uses of same” (priority 2003, dated 2011):
“Also recorded” adds a separate entry of the source.

Key:
[1] = system: D1 and D2; settings: cited from earlier work
[2] = Stability of the salts (heat/humidity, heat, light; HPLC impurity peak area); format: physicochemical
Description: The stability of the salts was investigated under the following circumstances:
Heat, 60° C./80% RH: Samples were stored at 60° C. with 80% RH for one week. Then they were dissolved and analysed by HPLC.
Heat, 90° C.: Samples (˜10 mg) were stored at 90° C. in closed containers containing 1 droplet of water. Then they were dissolved and analysed by HPLC.
Light: Samples were placed in the light cabinet at 250 w/m^2 for 24 hours. Then they were dissolved and analysed by HPLC.
The area of peaks in the chromatograms besides the peaks corresponding to the substance or the acid was summarized.

[3] = target: dopamine D2 receptor (Homo sapiens, UniProt P14416); settings: cited from earlier work
Chain of dopamine D2 receptor (P14416 whole entry, species assumed): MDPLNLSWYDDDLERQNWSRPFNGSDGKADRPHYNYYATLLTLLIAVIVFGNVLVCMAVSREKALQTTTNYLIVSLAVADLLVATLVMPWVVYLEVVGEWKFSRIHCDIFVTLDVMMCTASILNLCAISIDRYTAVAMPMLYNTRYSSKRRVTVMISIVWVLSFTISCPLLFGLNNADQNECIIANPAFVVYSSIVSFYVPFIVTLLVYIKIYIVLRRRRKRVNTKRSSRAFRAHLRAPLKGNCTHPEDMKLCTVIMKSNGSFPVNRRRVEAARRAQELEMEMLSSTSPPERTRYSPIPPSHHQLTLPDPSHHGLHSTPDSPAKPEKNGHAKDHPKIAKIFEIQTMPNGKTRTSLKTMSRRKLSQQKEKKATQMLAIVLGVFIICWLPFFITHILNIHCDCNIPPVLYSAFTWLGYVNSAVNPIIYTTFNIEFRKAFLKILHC

[4] = system: dopamine D1 receptor; settings: cited from earlier work
[5] = system: rats; settings: cited from earlier work
[6] = Hygroscopicity by Dynamic Vapour sorption (DVS); format: physicochemical
Excerpt: The hygroscopicity of the fumarate salt, the succinate salt (the alpha form) and the malonate salt was investigated by Dynamic Vapour sorption (DVS). […] The malonate absorbs gradually up to 1% of water when the relative humidity is raised to 95%, but with no hysteresis.

[7] = system: 5-HT2 receptor; settings: cited from earlier work
[8] = 90° C., closed containers containing 1 droplet of water

SMILES	D1 versus D2 antagonist potency in vivo [1]	Sum of impurity peak area % ([2]; 60° C./80% RH, one week) [%]	Sum of impurity peak area % [2, 8] [%]	Sum of impurity peak area % ([2]; Light, 250 w/m^2 for 24 hours) [%]	D2 antagonist potency [3]	D1 antagonist potency [4]	Induction of catalepsy [5]	Hygroscopicity ([6]; DVS)	5-HT2 antagonist potency [7]	Stability compared with the fumarate salt ([2]; 60° C./80% relative humidity (RH))	Stability compared with the fumarate salt ([2]; 90° C.)	Stability compared with the fumarate salt ([2]; exposed to light)	Hysteresis of water sorption ([6]; DVS)	Water absorbed ([6]; relative humidity raised to 95%)	Stability compared with the fumarate salt and the hydrogen malonate salt [2]	Degradation ([2]; all stability conditions)
CN1CCN([C@@H]2C[C@@H](c3ccccc3)c3ccc(Cl)cc32)CC1(C)C.O=C(O)/C=C/C(=O)O (relative stereo) [Fumarate, trans-4-((1R,3S)-6-chloro-3-phenylindan-1-yl)-1,2,2-trimethylpiperazinium (I) hydrogen fumarate]	equipotent	0.07	0.09	0.06	potent	potent	does not induce catalepsy	non-hygroscopic	potent							
CN1CCN([C@@H]2C[C@@H](c3ccccc3)c3ccc(Cl)cc32)CC1(C)C.O=C(O)CC(=O)O (relative stereo) [Malonate 1:1, trans-4-((1R,3S)-6-chloro-3-phenylindan-1-yl)-1,2,2-trimethylpiperazinium (I) hydrogen malonate]		0	6.19	0.06				non-hygroscopic		more stable	less stable	similar	no hysteresis; also recorded: no hysterhesis	up to 1%		
CN1CCN([C@@H]2C[C@@H](c3ccccc3)c3ccc(Cl)cc32)CC1(C)C.O=C(O)CCC(=O)O (relative stereo) [Succinate 1:1 alpha, trans-4-((1R,3S)-6-chloro-3-phenylindan-1-yl)-1,2,2-trimethyl-piperazinium (I) hydrogen succinate]		0	0	0				non-hygroscopic							more stable	does not show any degradation at all
